Converted amounts (≈) assume the structure as drawn.
How the values were obtained:
[1] = test system: Corynebacterium glutamicum ATCC 13032; assay: MIC assay, antibiotic susceptible reference strain; type: cell-based; conditions: Corynebacterium glutamicum, ATCC13032, read-out: Antimicrobial activity (MIC) C. g
Description: (§1) Working solutions of the test derivatives were prepared with up to 100% DMSO and stored at −20° C. If necessary, the solutions were heated to 40-80° C. before testing to facilitate complete dissolution. Double-distilled water was used in all dilutions prepared. […] A microdilution susceptibility test was used for MIC determination according to Clinical and Laboratory Standards Institute, “Methods for Dilution Antimicrobial Sisceptibility Tests for Bacteria That Graw Aerobically”, Approved Standard M07-A9, edition 2012, with modifications as described by Igumnova et al (Bioorg Med Chem, 2016, 24 (22), 5884-5894).
(§2) Briefly, the bacterial inoculum was adjusted to approximately 2.5-3×10^4 cells/mL in Mueller-Hinton broth (MHB, Difco Laboratories, USA), and incubated in a ratio of 1:1 with test derivatives in polystyrene 96-well flat-bottom microplates (NUNC, Roskilde, Denmark). Positive growth control (without test derivatives) and negative control (without bacteria) were included. The reference antibiotic was oxytetracycline hydrochloride (Sigma Aldrich, Saint Louis, Mo., USA). The microplates were incubated in an EnVision microplate reader (Perkin-Elmer, Turku, Finland) placed in an incubator set to 35° C. for 48 h. The MIC value was defined as the lowest concentration of derivative resulting in no bacterial growth as determined by OD600 measurement. All derivatives were tested in three parallels.

[2] = test system: Escherichia coli ATCC 25922; assay: MIC assay, antibiotic susceptible reference strain; type: cell-based; conditions: Escherichia coli, ATCC25922, read-out: Antimicrobial activity (MIC) E. c
Description: as §1, §2

[3] = test system: Pseudomonas aeruginosa PA01, DSM 19880 (ATCC 15692); assay: MIC assay, antibiotic susceptible reference strain; type: cell-based; conditions: Pseudomonas aeruginosa, read-out: Antimicrobial activity (MIC) P. a
Description: as §1, §2

[4] = test system: Staphylococcus aureus ATCC 9144; assay: MIC assay, antibiotic susceptible reference strain; type: cell-based; conditions: Staphylococcus aureus, ATCC9144, read-out: Antimicrobial activity (MIC) S. a
Description: as §1, §2

[5] = test system: E. coli 50579417; assay: MIC, multi-resistant clinical isolate; type: cell-based, Escherichia coli; conditions: for MIC: Escherichia coli, read-out: Antimicrobial activity (MIC); for selectivity index (EC50/MIC): RBC EC50 / MIC
Description: as §1, §2
(§3) The MIC was determined as explained above with some exceptions; working solutions of test derivatives were prepared from concentrated DMSO stocks stored at room temperature, the density of the bacterial inoculum was increased 40× to 1-1.2×10^6 cells/mL, enterococci were incubated in Brain Heart Infusion broth (BHIB, Difco Laboratories, USA), the microplates were incubated for 24 h, and the derivatives were tested in four parallels.

[6] = test system: E. coli 50639799; assay: MIC, multi-resistant clinical isolate; type: cell-based, Escherichia coli; conditions: for MIC: Escherichia coli, read-out: Antimicrobial activity (MIC); for selectivity index (EC50/MIC): RBC EC50 / MIC
Description: as §1, §2, §3

[7] = test system: E. coli 50676002; assay: MIC, multi-resistant clinical isolate; type: cell-based, Escherichia coli; conditions: for MIC: Escherichia coli, 50676002, read-out: Antimicrobial activity (MIC); for selectivity index (EC50/MIC): RBC EC50 / MIC, E. coli 50676002
Description: as §1, §2, §3

[8] = test system: E. coli 50739822; assay: MIC, multi-resistant clinical isolate; type: cell-based, Escherichia coli; conditions: for MIC: Escherichia coli, read-out: Antimicrobial activity (MIC); for selectivity index (EC50/MIC): RBC EC50 / MIC
Description: as §1, §2, §3

[9] = test system: E. coli 50857972; assay: MIC, multi-resistant clinical isolate; type: cell-based, Escherichia coli; conditions: for MIC: Escherichia coli, read-out: Antimicrobial activity (MIC); for selectivity index (EC50/MIC): RBC EC50 / MIC
Description: as §1, §2, §3

[10] = test system: P. aeruginosa 50692172; assay: MIC, multi-resistant clinical isolate; type: cell-based, Pseudomonas aeruginosa; conditions: for MIC: Pseudomonas aeruginosa, read-out: Antimicrobial activity (MIC); for selectivity index (EC50/MIC): RBC EC50 / MIC
Description: as §1, §2, §3

[11] = test system: P. aeruginosa 50692520; assay: MIC, multi-resistant clinical isolate; type: cell-based, Pseudomonas aeruginosa; conditions: for MIC: Pseudomonas aeruginosa, read-out: Antimicrobial activity (MIC); for selectivity index (EC50/MIC): RBC EC50 / MIC
Description: as §1, §2, §3

[12] = test system: P. aeruginosa K34-73; assay: MIC, multi-resistant clinical isolate; type: cell-based, Pseudomonas aeruginosa; conditions: for MIC: Pseudomonas aeruginosa, K3473, read-out: Antimicrobial activity (MIC); for selectivity index (EC50/MIC): RBC EC50 / MIC, P. aeruginosa K34-73
Description: as §1, §2, §3

[13] = test system: P. aeruginosa K34-7; assay: MIC, multi-resistant clinical isolate; type: cell-based, Pseudomonas aeruginosa; conditions: for MIC: Pseudomonas aeruginosa, K347, read-out: Antimicrobial activity (MIC); for selectivity index (EC50/MIC): RBC EC50 / MIC, P. aeruginosa K34-7
Description: as §1, §2, §3

[14] = test system: P. aeruginosa K44-24; assay: MIC, multi-resistant clinical isolate; type: cell-based, Pseudomonas aeruginosa; conditions: for MIC: Pseudomonas aeruginosa, K4424, read-out: Antimicrobial activity (MIC)
Description: as §1, §2, §3

[15] = test system: K. pneumoniae 50667959; assay: MIC, multi-resistant clinical isolate; type: cell-based, Klebsiella pneumoniae; conditions: for MIC: Klebsiella pneumoniae, read-out: Antimicrobial activity (MIC)
Description: as §1, §2, §3

[16] = test system: K. pneumoniae K47-25; assay: MIC, multi-resistant clinical isolate; type: cell-based, Klebsiella pneumoniae; conditions: Klebsiella pneumoniae, K4725, 24 h, read-out: Antimicrobial activity (MIC)
Description: as §1, §2, §3

[17] = test system: K. pneumoniae K66-45; assay: MIC, multi-resistant clinical isolate; type: cell-based, Klebsiella pneumoniae; conditions: for MIC: Klebsiella pneumoniae, K6645, read-out: Antimicrobial activity (MIC)
Description: as §1, §2, §3

[18] = test system: A. baumanii K63-58; assay: MIC, multi-resistant clinical isolate; type: cell-based, Acinetobacter baumannii; conditions: A. baumanii K63-58, resistant to colistin; for MIC: Acinetobacter baumannii, K6358, 24 h, read-out: Antimicrobial activity (MIC); for selectivity index (EC50/MIC): RBC EC50 / MIC
[19] = test system: human metastatic melanoma (A2058, ATCC CRL-11147) cells; assay: Anti-cancer activity against A2058 cells; type: cell-based; conditions: A2058, read-out: Anti-cancer IC50
Description: Cytotoxicity of the test compounds was evaluated after 72 hour exposure to human metastatic melanoma (A2058, ATCC CRL-11147) cells.
A2058 cells were grown overnight (2,000 cells/well), and then incubated with the test compounds (range of concentrations) diluted in MEM Earle's supplemented with gentamycin (10 μg/mL), non-essential amino acids (1%), sodium pyruvate (1 mM), L-alanyl-Lglutamine (2 mM), but without FBS (total volume was 100 μl) for […]. Ten μL of CellTiter 96® AQueous One Solution Reagent (Promega, Madison, Wis., USA) was added, and the plates were then further incubated for 1 hour.
Absorbance was measured at 485 nm in a DTX 880 Multimode Detector. Results were calculated as % survival compared to negative (assay media) and positive (Triton X-100; Sigma-Aldrich) controls.

[20] = test system: panel of 30 multi-resistant clinical isolates of Gram-positive and Gram-negative bacteria; assay: MIC screening, ranges over the panel of clinical isolates; type: cell-based; conditions: Enterococcus faecium, read-out: MIC values against the Gram-positive isolates of S. aurues and E. faecium
Description: as §1, §2, §3

NCCCCN1C(=O)N(CCCCN)C(=O)C(Cc2ccc3ccccc3c2)(Cc2ccc3ccccc3c2)C1=O [7(iv), 1,3-bis(4-aminobutyl)-5,5-bis(naphtalen-2-yl-methyl)-pyrimidin-2,4,6(1H,3H,5H)-trione]
MIC [1]: 1 µg/mL (≈ 1.82 µM) | MIC [2]: 16 µg/mL (≈ 29.1 µM) | MIC [3]: 16 µg/mL (≈ 29.1 µM) | MIC [4]: 8 µg/mL (≈ 14.5 µM) | MIC [5]: 16 µg/mL (≈ 29.1 µM) | selectivity index (EC50/MIC) [5]: (15) | MIC [6]: 16 µg/mL (≈ 29.1 µM) | selectivity index (EC50/MIC) [6]: (15) | MIC [7]: 16 µg/mL (≈ 29.1 µM) | selectivity index (EC50/MIC) [7]: (15) | MIC [8]: 16 µg/mL (≈ 29.1 µM) | selectivity index (EC50/MIC) [8]: (15) | MIC [9]: 16 µg/mL (≈ 29.1 µM) | selectivity index (EC50/MIC) [9]: (15) | MIC [10]: 32 µg/mL (≈ 58.1 µM) | selectivity index (EC50/MIC) [10]: (8) | MIC [11]: 32 µg/mL (≈ 58.1 µM) | selectivity index (EC50/MIC) [11]: (8) | MIC [12]: 32 µg/mL (≈ 58.1 µM) | selectivity index (EC50/MIC) [12]: (8) | MIC [13]: 32 µg/mL (≈ 58.1 µM) | selectivity index (EC50/MIC) [13]: (8) | MIC [14]: > 32 µg/mL | MIC [15]: > 32 µg/mL | MIC [16]: > 32 µg/mL | MIC [17]: > 32 µg/mL | MIC [18]: 16 µg/mL (≈ 29.1 µM) | selectivity index (EC50/MIC) [18]: (15) | IC50 [19]: 1 µg/mL (≈ 1.82 µM) | MIC [20]: 4 to 16 µg/mL (≈ 7.26 to 29.1 µM)

NCCCCN1C(=O)N(CCCCN)C(=O)C(Cc2ccc(F)c3ccccc23)(Cc2ccc(F)c3ccccc23)C1=O [7(v), 1,3-bis(4-aminobutyl)-5,5-bis((4-fluoronaphtalen-1-yl)methyl)pyrimidin-2,4,6(1H,3H,5H)-trione]
MIC [1]: 1 µg/mL (≈ 1.7 µM) | MIC [2]: 16 µg/mL (≈ 27.3 µM) | MIC [3]: 8 µg/mL (≈ 13.6 µM) | MIC [4]: 4 µg/mL (≈ 6.82 µM) | MIC [5]: 16 µg/mL (≈ 27.3 µM) | selectivity index (EC50/MIC) [5]: (10) | MIC [6]: 16 µg/mL (≈ 27.3 µM) | selectivity index (EC50/MIC) [6]: (10) | MIC [7]: 16 µg/mL (≈ 27.3 µM) | selectivity index (EC50/MIC) [7]: (10) | MIC [8]: 16 µg/mL (≈ 27.3 µM) | selectivity index (EC50/MIC) [8]: (10) | MIC [9]: 16 µg/mL (≈ 27.3 µM) | selectivity index (EC50/MIC) [9]: (10) | MIC [10]: 16 µg/mL (≈ 27.3 µM) | selectivity index (EC50/MIC) [10]: (10) | MIC [11]: 16 µg/mL (≈ 27.3 µM) | selectivity index (EC50/MIC) [11]: (10) | MIC [12]: 32 µg/mL (≈ 54.5 µM) | selectivity index (EC50/MIC) [12]: (5) | MIC [13]: 32 µg/mL (≈ 54.5 µM) | selectivity index (EC50/MIC) [13]: (5) | MIC [14]: 32 µg/mL (≈ 54.5 µM) | selectivity index (EC50/MIC) ([14]; RBC EC50 / MIC): (5) | MIC [15]: 32 µg/mL (≈ 54.5 µM) | selectivity index (EC50/MIC) ([15]; RBC EC50 / MIC): (5) | MIC [16]: > 32 µg/mL | MIC [17]: 32 µg/mL (≈ 54.5 µM) | selectivity index (EC50/MIC) ([17]; RBC EC50 / MIC, K. pneumoniae K66-45): (5) | MIC [18]: 16 µg/mL (≈ 27.3 µM) | selectivity index (EC50/MIC) [18]: (10) | IC50 [19]: 1 µg/mL (≈ 1.7 µM) | MIC [20]: 4 to 16 µg/mL (≈ 6.82 to 27.3 µM)
